Inconclusive results and toxic doses are left out. Cut-off read from the data, not from the text of the source: active = T/C of 150% or more; inactive = T/C below 125%.
System: L1210 leukemia ip in BDF1 mice, survival T/C
Test: NCI In Vivo Anticancer Drug Screen. Data for tumor model L1210 Leukemia (intraperitoneal) in B6D2F1 (BDF1) mice
Details: endpoint: mean survival time, higher = longer survival
Procedure, shortened: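 Tumor was transplanted into mice, which were then dosed with test compound or vehicle alone. Survival was recorded for each group, and the treated figure was expressed relative to the control figure.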

[1] = dose: 100.0 mg/kg/injection, schedule: Q01DX009 (ip), vehicle: saline
[2] = dose: 100.0 mg/kg/injection, schedule: Q04DX003 (ip), vehicle: saline
[3] = dose: 200.0 mg/kg/injection, schedule: Q01DX009 (ip), vehicle: saline
[4] = dose: 200.0 mg/kg/injection, schedule: Q04DX003 (ip), vehicle: saline
[5] = dose: 100.0 mg/kg/injection, schedule: Q04DX003 (ip), vehicle: Klucel (hydroxypropylcellulose) (HPC)
[6] = dose: 100.0 mg/kg/injection, schedule: Q01DX009 (ip), vehicle: Klucel (hydroxypropylcellulose) (HPC)

Measured: T/C

CCOC(=O)Cc1cc(=O)c2cc(OC)ccc2[nH]1
inactive: dose: 75.0 mg/kg/injection, schedule: Q01DX001 (ip), vehicle: saline 107 % of control | dose: 75.0 mg/kg/injection, schedule: Q04DX003 (ip), vehicle: saline 105 % of control | dose: 150.0 mg/kg/injection, schedule: Q01DX001 (ip), vehicle: saline 91 % of control | dose: 150.0 mg/kg/injection, schedule: Q04DX003 (ip), vehicle: saline 100 % of control | dose: 300.0 mg/kg/injection, schedule: Q01DX001 (ip), vehicle: saline 94 % of control | dose: 300.0 mg/kg/injection, schedule: Q04DX003 (ip), vehicle: saline 103 % of control

CC(=O)CC(=O)C(F)(F)F.CC(=O)CC(=O)C(F)(F)F.CC(=O)CC(=O)C(F)(F)F.[Rh]
inactive: dose: 100.0 mg/kg/injection, schedule: Q01DX009 (ip), vehicle: saline with Tween-80 97 % of control | dose: 100.0 mg/kg/injection, schedule: Q04DX003 (ip), vehicle: saline with Tween-80 97 % of control | dose: 200.0 mg/kg/injection, schedule: Q01DX009 (ip), vehicle: saline with Tween-80 100 % of control | dose: 200.0 mg/kg/injection, schedule: Q04DX003 (ip), vehicle: saline with Tween-80 90 % of control | dose: 400.0 mg/kg/injection, schedule: Q01DX009 (ip), vehicle: saline with Tween-80 96 % of control | dose: 400.0 mg/kg/injection, schedule: Q04DX003 (ip), vehicle: saline with Tween-80 92 % of control

O=S1(=O)CCCC1
inactive: [1] 104 % of control | [2] 104 % of control | [3] 98 % of control | [4] 100 % of control | dose: 400.0 mg/kg/injection, schedule: Q01DX009 (ip), vehicle: saline 96 % of control | dose: 400.0 mg/kg/injection, schedule: Q04DX003 (ip), vehicle: saline 98 % of control

CC(O)c1nc2ccccc2n1C (stereo not given)
inactive: dose: 333.0 mg/kg/injection, schedule: Q01DX Z (ip), vehicle: saline 118 % of control | dose: 500.0 mg/kg/injection, schedule: Q01DX Z (ip), vehicle: saline 98 % of control

CC(=O)OC1CCC2(C)C(=CCC3C2CCC2(C)C3CC3C(c4ccccc4C)=NN(c4ccccc4)C32C#N)C1 (stereo not given)
inactive: dose: 12.5 mg/kg/injection, schedule: Q04DX002 (ip), vehicle: Klucel (hydroxypropylcellulose) (HPC) 102 % of control | dose: 25.0 mg/kg/injection, schedule: Q04DX002 (ip), vehicle: Klucel (hydroxypropylcellulose) (HPC) 97 % of control | dose: 50.0 mg/kg/injection, schedule: Q04DX002 (ip), vehicle: Klucel (hydroxypropylcellulose) (HPC) 97 % of control

O=C(Nc1c[nH]c(=O)[nH]c1=O)C(F)(F)F
inactive: dose: 50.0 mg/kg/injection, schedule: Q01DX009 (ip), vehicle: saline 100 % of control | dose: 50.0 mg/kg/injection, schedule: Q04DX003 (ip), vehicle: saline 103 % of control | [1] 96 % of control | [2] 104 % of control | [3] 92 % of control | [4] 108 % of control

CCCCCCCCCCCCCCCCCSc1cccc(C)c1
inactive: [5] 93 % of control | dose: 200.0 mg/kg/injection, schedule: Q04DX003 (ip), vehicle: Klucel (hydroxypropylcellulose) (HPC) 88 % of control

CCOc1ccc(/C=C2\N=C(c3ccccc3)OC2=O)cc1OC
inactive: [6] 109 % of control | dose: 200.0 mg/kg/injection, schedule: Q01DX009 (ip), vehicle: Klucel (hydroxypropylcellulose) (HPC) 105 % of control | dose: 400.0 mg/kg/injection, schedule: Q01DX009 (ip), vehicle: Klucel (hydroxypropylcellulose) (HPC) 102 % of control

S=P1(c2ccccc2)Nc2ccccc2N1c1ccccc1 (stereo not given)
inactive: dose: 100.0 mg/kg/injection, schedule: Q04DX002 (ip), vehicle: DMSO 114 % of control | dose: 200.0 mg/kg/injection, schedule: Q04DX002 (ip), vehicle: DMSO 86 % of control

NNC(=O)c1ccccc1[N+](=O)[O-]
inactive: dose: 25.0 mg/kg/injection, schedule: Q01DX009 (ip), vehicle: Klucel (hydroxypropylcellulose) (HPC) 95 % of control | dose: 50.0 mg/kg/injection, schedule: Q01DX009 (ip), vehicle: Klucel (hydroxypropylcellulose) (HPC) 94 % of control | dose: 50.0 mg/kg/injection, schedule: Q04DX003 (ip), vehicle: Klucel (hydroxypropylcellulose) (HPC) 100 % of control | [6] 101 % of control | [5] 100 % of control

COc1cc(C(=O)N2CC2)cc(OC)c1OC
inactive: dose: 25.0 mg/kg/injection, schedule: Q01DX009 (ip), vehicle: water 96 % of control | dose: 50.0 mg/kg/injection, schedule: Q01DX009 (ip), vehicle: water 96 % of control

COC(C#N)(Cc1ccccc1)Cc1ccccc1
inactive: dose: 75.0 mg/kg/injection, schedule: Q01DX001 (ip), vehicle: other 92 % of control | dose: 150.0 mg/kg/injection, schedule: Q01DX001 (ip), vehicle: other 95 % of control
